The results in this text go back to BindingDB's records for doi:10.1021/jm020901d (Eli Lilly, 2002).

As usually defined, the Ki is the equilibrium dissociation constant of an inhibitor or competing ligand from its target. Read a high Ki as weaker binding.

In the test the target is T1, Glutamate racemase (Limosilactobacillus fermentum, UniProt Q03469).
T1 sequence (Q03469 whole entry): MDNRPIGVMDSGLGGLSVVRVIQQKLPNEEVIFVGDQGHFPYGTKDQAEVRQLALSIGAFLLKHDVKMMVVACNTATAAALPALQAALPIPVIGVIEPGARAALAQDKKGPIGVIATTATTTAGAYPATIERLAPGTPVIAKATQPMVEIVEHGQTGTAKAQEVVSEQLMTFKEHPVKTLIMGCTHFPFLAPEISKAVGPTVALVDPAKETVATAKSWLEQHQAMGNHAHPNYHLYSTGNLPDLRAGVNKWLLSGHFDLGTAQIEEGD
Put plainly: Binding affinity against Glutamate Racemase.

Molecules are shown by their SMILES.

Regarding `N[C@H](C[C@H](Cc1ccc2ccccc2c1)C(=O)O)C(=O)O` [2-Amino-4-naphthalen-2-ylmethyl-pentanedioic acid], the inhibition constant (Ki) stood at 0.016 µM.
